Measurements taken from the supplement of paper PMC8239392.

How the values were obtained:
[1] = system: TAZ-DEP MCF10A-TAZ tumor cells; assay: cell viability relative to DMSO control; higher = less cytotoxic; extreme values may be limits of the assay; conditions: 72 h
Protocol: (§1)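 TAZ-dependent (grown with 2 ug/ml dox) and TAZ-independent MCF10A-TAZ tumor-derived breast cancer stem-like cells were plated in 384-well plates and treated with serially diluted compounds (0.65-10 uM) for 72 h. Viability was read by resazurin assay and expressed as % of DMSO-treated control.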

[2] = system: TAZ-IND MCF10A-TAZ tumor cells; assay: as above; conditions: 72 h
Protocol: as §1

| SMILES | cell viability ([1]; 0.65 µM) | cell viability ([1]; 1.25 µM) | cell viability ([1]; 2.5 µM) | cell viability ([1]; 5 µM) | cell viability ([1]; 10 µM) | cell viability ([2]; 0.65 µM) | cell viability ([2]; 1.25 µM) | cell viability ([2]; 2.5 µM) | cell viability ([2]; 5 µM) | cell viability ([2]; 10 µM) |
| --- | --- | --- | --- | --- | --- | --- | --- | --- | --- | --- |
| CNCc1ccc(-c2cc(-c3nc(-c4ccc(S(=O)(=O)C(C)C)cc4)cnc3N)on2)cc1 [VE-822] | 55% | 37% | 29% | 23% | 20% | 96% | 87% | 81% | 75% | 69% |
| CN1CCN(CCCNc2ncc(Cl)c(-c3cc4c(C(=O)NC5CC5)cccc4s3)n2)CC1 | 74% | 67% | 63% | 63% | 65% | 94% | 91% | 87% | 84% | 80% |
| COCCOc1cnc2ccn([C@H](C)c3nnc4c(F)cc(-c5cnn(C)c5)cn34)c(=O)c2c1 [AMG 337] | 88% | 84% | 77% | 68% | 60% | 97% | 97% | 100% | 97% | 100% |
| O=[N+]([O-])C=Cc1ccc2c(c1)OCO2 | 100% | 100% | 100% | 78% | 1% | 100% | 99% | 98% | 98% | 31% |
| O=C(O)c1cc2cccc([N+](=O)[O-])c2[nH]1 | 100% | 98% | 87% | 47% | 2% | 100% | 100% | 100% | 97% | 70% |
| CCCCCCCCCCCC1=C(O)C(=O)C=C(O)C1=O [Embelin] | 89% | 84% | 75% | 57% | 28% | 89% | 90% | 90% | 89% | 82% |
| C#Cc1cccc(Nc2ncnc3cc4c(cc23)OCCOCCOCCO4)c1 [Icotinib] | 100% | 100% | 100% | 89% | 34% | 100% | 100% | 100% | 100% | 96% |
| CN(C)CCSSCCNC(=O)C1CCN(C(=O)CSc2ccc(Cl)cc2)CC1 [6H05] | 96% | 91% | 89% | 66% | 23% | 99% | 98% | 92% | 88% | 83% |
| Nc1nc(OCc2cc(Br)cs2)c2[nH]cnc2n1 [Lomeguatrib] | 96% | 91% | 90% | 55% | 36% | 96% | 98% | 97% | 100% | 85% |
| CCn1c2ccccc2c2cc(CNCc3ccccc3OC)ccc21 [HLCL-61] | 100% | 100% | 100% | 89% | 59% | 97% | 99% | 100% | 100% | 95% |
| NCCCC[C@@H]1NC(=O)[C@@H](Cc2ccc(O)cc2)NC(=O)[C@H](CC(=O)O)NC(=O)CNC(=O)[C@H](CCCN=C(N)N)NC1=O [Cyclo(RGDyK)] | 99% | 86% | 59% | 49% | 27% | 98% | 94% | 86% | 74% | 65% |
| CCN(CC)CCCC(C)Nc1nc(C)cc(Nc2ccc3nc(C)cc(N)c3c2)n1 (stereo not given) | 50% | 54% | 47% | 50% | 34% | 80% | 81% | 90% | 80% | 73% |
| COC1CCN(C(=O)c2cc(Cc3n[nH]c(=O)c4ccccc34)ccc2F)CC1 [AZD2461] | 94% | 91% | 94% | 70% | 56% | 94% | 89% | 91% | 83% | 78% |
| N#CC(=C(/N)Sc1ccccc1N)/C(C#N)=C(\N)Sc1ccccc1N [U0126-EtOH] | 99% | 94% | 84% | 70% | 67% | 95% | 94% | 89% | 84% | 79% |
| Cc1[nH]nc(C(F)(F)F)c1Cc1sc2c(c1C(=O)N1C[C@](C)(O)CO1)c(=O)n(C)c(=O)n2C(C)C [AZD3965] | 54% | 49% | 45% | 39% | 32% | 92% | 87% | 91% | 60% | 47% |
| C[C@H]1COC2=C1C(=O)C(=O)c1c2ccc2c1CCCC2(C)C [Cryptotanshinone] | 96% | 94% | 92% | 74% | 30% | 96% | 97% | 93% | 87% | 79% |
| COc1cc(F)c(F)c(Nc2ccc(I)cc2F)c1NS(=O)(=O)C1(C[C@H](O)CO)CC1 [Refametinib (RDEA119, Bay 86-9766)] | 53% | 51% | 51% | 51% | 50% | 84% | 82% | 80% | 77% | 71% |
| O=C([C@@H](Cc1cccc(C(F)(F)F)c1)NS(=O)(=O)c1cc(F)c2c(c1)CCNC2)N1CCCC1 [PFI-2] | 94% | 85% | 72% | 56% | 46% | 97% | 94% | 92% | 85% | 78% |
| CNC(=O)c1cc(Oc2ccc(NC(=O)Nc3ccc(Cl)c(C(F)(F)F)c3)cc2)ccn1 [Sorafenib] | 100% | 98% | 92% | 84% | 72% | 100% | 99% | 100% | 98% | 93% |
| CC(C)(C)c1ccc(S(=O)(=O)NCc2ccc(C(=O)Nc3cccnc3)cc2)cc1 [STF-31] | 100% | 100% | 100% | 99% | 98% | 99% | 100% | 100% | 97% | 96% |
| O=C(NOC[C@H](O)CO)c1ccc(F)c(F)c1Nc1ccc(I)cc1F | 52% | 56% | 53% | 47% | 48% | 82% | 87% | 84% | 80% | 78% |
| O=C1NC(=O)/C(=C/c2ccc(-c3ccc(F)cc3O)o2)S1 | 62% | 53% | 51% | 46% | 43% | 72% | 75% | 72% | 67% | 63% |
| CC(=O)c1c(C)c2cnc(Nc3ccc(N4CCNCC4)cn3)nc2n(C2CCCC2)c1=O | 79% | 73% | 70% | 59% | 41% | 100% | 100% | 100% | 100% | 96% |
| CC(C)N(CCCNC(=O)Nc1ccc(C(C)(C)C)cc1)C[C@H]1O[C@@H](n2cc(Br)c3c(N)ncnc32)[C@H](O)[C@@H]1O [SGC 0946] | 89% | 83% | 78% | 63% | -1% | 94% | 89% | 79% | 34% | 1% |
| O=C(/C=C/c1ccc2ccccc2n1)c1ccncc1 [PFK15] | 100% | 100% | 81% | 47% | 31% | 98% | 98% | 99% | 95% | 97% |
